For the assay, the system named is human neutrophils. Nature of the assay: Ca2+ mobilization. The format is cell-based. Particulars: Neutrophil, read-out: Ca2+ flux Efficacy. Background: Calcium assays in cells follow changes in intracellular calcium, usually with a dye or a luminescent sensor.

For the compound `COc1cccc(Cc2ccnn(CC(=O)Nc3ccc(Br)cc3)c2=O)c1` [Compound 6a, N-(4-Bromophenyl)-2-[5-(3-methoxybenzyl)-6-oxopyridazin-1(6H)-yl]acetamide], the Emax was 100%. Consider `Cc1cc(N)c(=O)n(CC(=O)Nc2ccc(Br)cc2)n1` [Compound 27, N-(4-Bromophenyl)-2-[5-amino-3-methyl-6-oxopyridazin-1(6H)-yl]acetamide], for which the Emax worked out at 100%.

The values above are taken from PMC3711119 (European journal of medicinal chemistry, 2013).
